Experimental data published in US7371773B2, “Breast cancer resistance protein (BCRP) inhibitor” (Kabushiki Kaisha Yakult Honsha, priority 2003, dated 2008).
≈ marks a conversion by molar mass, not a printed value. Read-outs that look alike come from different tables or passages of the source.

Assays:
Type in all cases: cell-based, human
[1] = system: A549 cell line; assay: Anticancer drug sensitivity test, A549 cell line; conditions: culturing 48 hours
Method: (§1) The A549 cell line or each of the A549/SN-38-1 to 6 was suspended in 10% FBS/Ham's F-12, and the resultant suspension was inoculated into a 96-well microplate, followed by culturing at 5% CO2 and 37° C. overnight. Thereafter, a solution of an anticancer drug in 10% FBS/Ham's F-12 (50 μL) was added to each of the wells, followed by culturing at 5% CO2 and 37° C. for 48 hours. After completion of culturing, the number of viable cells was counted by use of a viable cell counting reagent [TetraColor ONE (trade name), product of Seikagaku Corporation] according to the attached instruction manual. […] “Relative resistance value” is obtained by dividing the IC50 for an A549/SN-38 cell line by the IC50 for the A549 cell line. The greater the relative resistance value, the higher the level of acquired resistance.

[2] = system: A549/SN-38-1 cell line; assay: Anticancer drug sensitivity test, A549/SN-38-1; conditions: for IC50: A549/SN-38-1, culturing 48 hours; for Relative resistance value: IC50 for A549/SN-38-1 divided by IC50 for A549
Method: (§2) Human non-small cell lung cancer A549 cell line was subcultured at 5% CO2 and 37° C. by use of a Ham's F-12 medium containing 10% FBS, 100 U/mL of penicillin, and 100 μg/mL of streptomycin (10% FBS/Ham's F-12). SN-38-resistant A549 cell lines were selected by subculturing the A549 cell line in a medium for two months while the concentration of SN-38 contained in the medium was increased in a stepwise manner (4 to 10 ng/mL). Subsequently, the resultant SN-38-resistant A549 cell lines were subjected to cloning by means of limiting dilution, to thereby establish six cloned SN-38-resistant A549 cell lines (A549/SN-38-1 to 6).
as §1

[3] = system: A549/SN-38-2 cell line; assay: Anticancer drug sensitivity test, A549/SN-38-2; conditions: for IC50: A549/SN-38-2, culturing 48 hours; for Relative resistance value: IC50 for A549/SN-38-2 divided by IC50 for A549
Method: as §2, §1

[4] = system: A549/SN-38-3 cell line; assay: Anticancer drug sensitivity test, A549/SN-38-3; conditions: for IC50: A549/SN-38-3, culturing 48 hours; for Relative resistance value: IC50 for A549/SN-38-3 divided by IC50 for A549
Method: as §2, §1

[5] = system: A549/SN-38-4 cell line; assay: Anticancer drug sensitivity test, A549/SN-38-4; conditions: for IC50: A549/SN-38-4, culturing 48 hours; for Relative resistance value: IC50 for A549/SN-38-4 divided by IC50 for A549
Method: as §2, §1

[6] = system: A549/SN-38-5 cell line; assay: Anticancer drug sensitivity test, A549/SN-38-5; conditions: for IC50: A549/SN-38-5, culturing 48 hours; for Relative resistance value: IC50 for A549/SN-38-5 divided by IC50 for A549
Method: as §2, §1

[7] = system: A549/SN-38-6 cell line; assay: Anticancer drug sensitivity test, A549/SN-38-6; conditions: for IC50: A549/SN-38-6, culturing 48 hours; for Relative resistance value: IC50 for A549/SN-38-6 divided by IC50 for A549
Method: as §2, §1

[8] = system: A549/SN-38 cell lines; assay: Anticancer drug sensitivity test, A549/SN-38 cell lines as a group; conditions: BCRP substrates
[9] = system: A549/SN-38-4 cell line; assay: Amount of anticancer drug accumulated in A549/SN-38 cell line; conditions: SN-38 300 ng/mL, 37° C., 60 minutes

Row | SMILES | IC50 ([1]; Homo sapiens, read-out: IC50) | IC50 ([2]; Homo sapiens, read-out: IC50) | IC50 ([3]; Homo sapiens, read-out: IC50) | IC50 ([4]; Homo sapiens, read-out: IC50) | IC50 ([5]; Homo sapiens, read-out: IC50) | IC50 ([6]; Homo sapiens, read-out: IC50) | IC50 ([7]; Homo sapiens, read-out: IC50) | IC50 [1] | IC50 [2] | Relative resistance value [2] | IC50 [3] | Relative resistance value [3] | IC50 [4] | Relative resistance value [4] | IC50 [5] | Relative resistance value [5] | IC50 [6] | Relative resistance value [6] | IC50 [7] | Relative resistance value [7] | other results
1 | CCc1c2c(nc3ccc(O)cc13)-c1cc3c(c(=O)n1C2)COC(=O)[C@]3(O)CC [SN-38, 7-ethyl-10-hydroxycamptothecin] |  |  |  |  |  |  |  | 0.013 µg/mL (≈ 0.0331 µM) | 0.12 µg/mL (≈ 0.306 µM) | (9.2) | 0.10 µg/mL (≈ 0.255 µM) | (7.5) | 0.13 µg/mL (≈ 0.331 µM) | (9.7) | 0.10 µg/mL (≈ 0.255 µM) | (7.7) | 0.10 µg/mL (≈ 0.255 µM) | (7.7) | 0.10 µg/mL (≈ 0.255 µM) | (7.4) | Resistance of A549/SN-38 cell lines to the anticancer drug [8]: particularly strong resistance; Amount of SN-38 accumulated in A549/SN-38-4 relative to A549 cell line [9]: about ⅕
2 | O=C1c2c(O)ccc(O)c2C(=O)c2c(NCCNCCO)ccc(NCCNCCO)c21 [mitoxantrone] |  |  |  |  |  |  |  |  |  |  |  |  |  |  |  |  |  |  |  |  | Resistance of A549/SN-38 cell lines to the anticancer drug [8]: particularly strong resistance
3 | N.N.[Cl][Pt][Cl] [Cisplatin] |  |  |  |  |  |  |  | 18.6 µg/mL | 15.1 µg/mL | (0.8) | 16.5 µg/mL | (0.9) | 15.1 µg/mL | (0.8) | 17.0 µg/mL | (0.9) | 15.9 µg/mL | (0.9) | 16.8 µg/mL | (0.9) | 
4 | Nc1ccn([C@@H]2O[C@H](CO)[C@@H](O)C2(F)F)c(=O)n1 [Gemcitabine] | 0.009 µg/mL (≈ 0.0342 µM) | 0.0039 µg/mL (≈ 0.0148 µM) | 0.0053 µg/mL (≈ 0.0201 µM) | 0.004 µg/mL (≈ 0.0152 µM) | 0.0032 µg/mL (≈ 0.0122 µM) | 0.004 µg/mL (≈ 0.0152 µM) | 0.004 µg/mL (≈ 0.0152 µM) |  |  | (0.4) |  | (0.6) |  | (0.4) |  | (0.4) |  | (0.4) |  | (0.4) | 
5 | O=c1[nH]cc(F)c(=O)[nH]1 [5-Fluorouracil] | 2.1 µg/mL (≈ 16.1 µM) | 4.3 µg/mL (≈ 33.1 µM) | 1.3 µg/mL (≈ 9.99 µM) | 0.69 µg/mL (≈ 5.3 µM) | 0.91 µg/mL (≈ 7 µM) | 1.7 µg/mL (≈ 13.1 µM) | 1 µg/mL (≈ 7.69 µM) |  |  | (2.0) |  | (0.6) |  | (0.3) |  | (0.4) |  | (0.8) |  | (0.5) | 
6 | CO[C@@]12[C@H](COC(N)=O)C3=C(C(=O)C(C)=C(N)C3=O)N1C[C@@H]1N[C@@H]12 [Mitomycin C] |  |  |  |  |  |  |  | 0.11 µg/mL (≈ 0.329 µM) | 0.13 µg/mL (≈ 0.389 µM) | (1.2) | 0.11 µg/mL (≈ 0.329 µM) | (1.1) | 0.0029 µg/mL (≈ 0.00867 µM) | (0.3) | 0.15 µg/mL (≈ 0.449 µM) | (1.4) | 0.11 µg/mL (≈ 0.329 µM) | (1.0) | 0.047 µg/mL (≈ 0.141 µM) | (0.4) | 

The next lines start with results.

Row | IC50 ([1]; Homo sapiens, read-out: IC50) | IC50 ([2]; Homo sapiens, read-out: IC50) | IC50 ([3]; Homo sapiens, read-out: IC50) | IC50 ([4]; Homo sapiens, read-out: IC50) | IC50 ([5]; Homo sapiens, read-out: IC50) | IC50 ([6]; Homo sapiens, read-out: IC50) | IC50 ([7]; Homo sapiens, read-out: IC50) | SMILES | IC50 [1] | IC50 [2] | Relative resistance value [2] | IC50 [3] | Relative resistance value [3] | IC50 [4] | Relative resistance value [4] | IC50 [5] | Relative resistance value [5] | IC50 [6] | Relative resistance value [6] | IC50 [7] | Relative resistance value [7] | other results
7 | 0.0049 µg/mL (≈ 0.00574 µM) | 0.0098 µg/mL (≈ 0.0115 µM) | 0.012 µg/mL (≈ 0.0141 µM) | 0.013 µg/mL (≈ 0.0152 µM) | 0.014 µg/mL (≈ 0.0164 µM) | 0.0061 µg/mL (≈ 0.00714 µM) | 0.0071 µg/mL (≈ 0.00831 µM) | CC(=O)O[C@H]1C(=O)[C@@]2(C)[C@H]([C@H](OC(=O)c3ccccc3)[C@]3(O)C[C@H](OC(=O)[C@H](O)[C@@H](NC(=O)c4ccccc4)c4ccccc4)C(C)=C1C3(C)C)[C@]1(OC(C)=O)CO[C@@H]1C[C@@H]2O [Paclitaxel] |  |  | (2.0) |  | (2.4) |  | (2.7) |  | (2.8) |  | (1.2) |  | (1.4) | 
8 | 0.9 µg/mL (≈ 1.53 µM) | 0.27 µg/mL (≈ 0.459 µM) | 0.8 µg/mL (≈ 1.36 µM) | 1.6 µg/mL (≈ 2.72 µM) | 3.5 µg/mL (≈ 5.95 µM) | 2.3 µg/mL (≈ 3.91 µM) | 1 µg/mL (≈ 1.7 µM) | COc1cc([C@@H]2c3cc4c(cc3[C@@H](O[C@@H]3O[C@@H]5CO[C@@H](C)O[C@H]5[C@H](O)[C@H]3O)[C@H]3COC(=O)[C@H]23)OCO4)cc(OC)c1O [Etoposide] |  |  | (0.3) |  | (1.0) |  | (1.9) |  | (4.0) |  | (2.7) |  | (1.1) | 
9 | 0.1 µg/mL (≈ 0.184 µM) | 0.19 µg/mL (≈ 0.35 µM) | 0.14 µg/mL (≈ 0.258 µM) | 0.12 µg/mL (≈ 0.221 µM) | 0.22 µg/mL (≈ 0.405 µM) | 0.057 µg/mL (≈ 0.105 µM) | 0.049 µg/mL (≈ 0.0902 µM) | COc1cccc2c1C(=O)c1c(O)c3c(c(O)c1C2=O)C[C@@](O)(C(=O)CO)C[C@@H]3O[C@H]1C[C@H](N)[C@H](O)[C@H](C)O1 [Doxorubicin] |  |  | (1.9) |  | (1.4) |  | (1.3) |  | (2.3) |  | (0.6) |  | (0.5) | 
